# Laboratory results taken from patent publication US20260165936A1, “BIO-BASED SURFACTANT COMPOSITION FOR REDUCTION OF MULTISPECIES BIOFILM FORMATION IN ORAL CAVITY” (SKYLAB AG, priority 2023, published 2026).
# Columns and labels:
# [1] = system: dental plaque; settings: second-generation anti-plaque agent; cited from earlier work
# [2] = system: dental plaque (biofilm) grown from fresh human saliva; assay: Inhibition of biofilm formation on rough glass rods (biofilm dry weight); format: cell-based; settings: for Average biofilm weight: biofilm grown 3 days on rough glass rods in human saliva, dry weight; for Biofilm inhibitory effect of the individual component alone compared to the control (in words): individual component without its partner, FIG. 2
# Method: The aqueous solutions of sodium lauroyl sarcosinate, biosurfactant rhamnolipid and the mixture thereof at various concentrations were tested for inhibition of biofilm formation on the surface of rough glass rods. The test sample of the raw material contained sodium lauroyl sarcosinate at the level of 35%. The test sample of the raw material contained rhamnolipid at the level of 40%. Sterile water was used as a negative control, and the mouthwash Corsodyl, containing 0.2% chlorhexidine was used as a positive control. Dry biofilm mass was weighted to determine the amount of formed dental plaque. The dental plaque was grown for 3 days by immersion of rough glass rods into the fresh human saliva containing 0.1% saccharose. […] On Day 1 one treatment of the glass rods with the test component solutions, and on Days 2 and 3 two treatments of the glass rods with the test component solutions were made. At the end of Day 3 the biofilm was collected from the glass rods, and the plaque amount by dry weight (g) was determined. Lesser weight indicated higher efficacy against the dental plaque. Sterilized rods were fixed in the holders in the microbiological cabinet. Since that moment the rods and the holders were used as the integral units. On Day 1 the sterile glass rods were pre-treated for 2 minutes with the test component solutions taken in the amount of 5 mL. Then the glass rods were removed, washed in 5 mL of the sterile distilled water and immersed into 5 mL of saliva containing 0.1% saccharose. The tubes were placed into the rack and then into the incubator (t=37° C.) and on shaker (250 rpm) for about 18 hours. On Days 2 and 3 in the morning the rods were treated with the test component solutions, then placed into nutritive broth and returned into the incubator and on shaker. After 6 h incubation in the broth the rods were treated with the test component solution once again and transferred into the saliva with 0.1% glucose, and then returned into the incubator for 18 hours. On Day 4 the tubes with the rods were removed from the incubator and used for determination of the biofilm dry weight. For this purpose, the rods were dried and then weighted on analytical balance with the accuracy of 4 decimal places. The biofilm was removed after the rehydration, and the rods were weighted once again. The biofilm dry weight was determined from the equation: [formula]
Molecule,Removal of dental plaque [1],Average biofilm weight ([2]; aqueous solution 0.01%) [g],Biofilm inhibitory effect of the individual component alone compared to the control (in words) [2],"Dose dependence of dental plaque weight (in words) ([2]; 0.2 and 2% aqueous solutions, 10-fold increase in concentration)",Average biofilm weight ([2]; aqueous solution 0.2%) [g],Average biofilm weight ([2]; aqueous solution 2%) [g]
[H]/N=C(\N/C(=N/[H])NCCCCCCNC(=N)NC(=N)Nc1ccc(Cl)cc1)Nc1ccc(Cl)cc1 [chlorohexidine],70-90%,,,,,
rhamnolipid [Biosurfactant rhamnolipid],,0.0026,do not provide for any biofilm inhibitory effect compared to the control,,,
sodium lauroyl sarcosinate,,,do not provide for any biofilm inhibitory effect compared to the control,absence of obvious dose-dependent effect,0.0022,0.0020
